Experiment [1] concerns mouse WT pancreatic explants (E12.5). In words: Mouse WT pancreatic explants (E12.5) cultured 4 days with DAPT; staining and qRT-PCR. The experiment is classed as cell-based. Conditions: for ductal cell development: 4 days. Here is the method:
[…] Sections were stained against Mucin1, carboxypeptidase1 (CPA) and glucagon (Glu). C. qRT-PCR analysis of explants performed as in A, B. Pancreatic marker genes were assessed and fold-changes to WT explants treated with DMSO were calculated by DDct method, using GAPDH mRNA as internal standard.
Given that pancreatic ductal cells form in Ngn3 null mice, and because ductal genes have not been identified as direct Ngn3 targets, we set forth to determine if the cell-extrinsic mechanism involving Notch indeed was causal for the Ngn3 Delayed ON phenotype. We first tested if pancreatic ductal cell differentiation was dependent on Notch. We cultured WT pancreatic explants in the presence of DAPT (FIG. 35A, B, C). These experiments were based on E12.5 pancreas, as at that age, the majority of tip/trunk patterning has occurred, and cells are actively undergoing terminal fate decisions. These cultures developed significant numbers of Muc1+ ductal cells during culture in absence of DAPT (FIG. 35A), with a density exceeding that found in-vivo. Acinar cell development (CPA1+) proceeded in WT (FIG. 35A), albeit at a much reduced level compared to normal development. […] Given that Notch processing inhibition strongly affected cellular differentiation, we investigated this further by performing qRT-PCR on similar-type explants (FIG. 35C).
For orientation: Quantitative PCR measures a nucleic acid by following its amplification.

For experiment [2], the system named is E12.5 Ngn3 Delayed ON pancreas. Briefly: Ngn3 Delayed ON pancreas (E12.5) explant culture 4 days with and without DAPT, immunofluorescence. It is filed as cell-based, mouse. Conditions: four days ex-vivo. An excerpt:
D-K. Ngn3 Delayed ON pancreas (E12.5, doxycycline was provided at E7.5, E9.5 as in FIG. 2A) was isolated and subjected to 4 days of explant culture with and without DAPT as described in A,B. Immunofluorescence analyses of explant pancreas using select pancreatic markers, after 4 days in culture. D′: insert image showing the expression of glucagon.
Given that Dll1 and Hes1 were >2-fold increased in the E12.5 Ngn3 Delayed ON pancreas, we next asked to what degree Notch processing was also required for the enhanced Ngn3-mediated ductal cell formation in that model. Similar to above, microdissected E12.5 Ngn3 Delayed ON pancreas was cultured for four days ex-vivo with and without DAPT (FIG. 36D-K). In contrast to WT explants, Ngn3 Delayed ON pancreas developed in a quite similar manner as observed in-vivo; in addition to widespread ductal formation, glucagon-producing clusters were observed, and extremely few acinar cells were found (FIG. 36D, F, H). Similar results were obtained using staining for Hnf1β (data not shown). […] The Ngn3-mediated ductal cell formation was abrogated by DAPT treatment ([…]). […] We conclude that Notch signaling is required for both normal, as well as Ngn3-mediated, pancreatic ductal cell development, and that blocking this pathway promotes acinar and endocrine fates at the expense of ductal cells. Of note, at high levels of DAPT treatment, γ-secretase inhibition impacts endocrine subtype determination as well, and if a concomitant increase in Ngn3 protein is provided, the organ regains capacity for significant insulin-cell differentiation.

Experiment [3] has as its system Ngn3 protein. Briefly: Ngn3 protein stability and half-life in HepG2 cells, cycloheximide time course, Western blot. The experiment is classed as cell-based. An excerpt:
I. Protein stability and half-life assessment of Ngn3 in HepG2 cells. HepG2 cells were transfected with pTRE2-Ngn3 and pCMV-rtTA, treated with Doxycycline for 24 hr, and on the subsequent day pre-exposed to the proteasomal inhibitor MG132 for 5 hr. At time t=0, protein synthesis was inhibited by cycloheximide (CHX). Western blot using anti-Ngn3 antibodies are shown; b-actin served as a control, and remains stable. MG132 treatment leads to Ngn3 protein accumulation at t=0, and strongly stabilizes the protein, which rapidly decays in non-treated cells. J. Experiment conducted similarly as in I, but CMV-driven versions of Notch1 and Notch2 intracellular domains (N1ICD, N2ICD respectively) (left), or dominant-negative mastermind-like1 (DN-MAML1) were co-transfected with pTRE2-Ngn3. The left-most blot is overexposed to reveal the lower level of accumulated Ngn3 protein in presence of N1ICD, N2ICD, and the loss of Ngn3 upon CHX treatment. The analysis was done 1 hr post CHX treatment. […] K. Mouse pancreatic E14.5 explants were subjected to short-term treatment of CHX (1 hr) and MG132 (5 hr pre, and post-culture) as indicated. Total protein was isolated and subjected to anti-Ngn3 Western blotting. Levels of Ngn3 increase in presence of MG132, and decrease in response to CHX. Ngn3 protein levels increase correspondingly in presence of DAPT, a condition where the protein remains stable (CHX+DAPT lane). L. Stability measurements of Ngn3 in the presence of various cellular regulatory proteins. The experiment was conducted as in I and J. Decay scans (right) provide a measure of the decay rate of Ngn3. In all cases, the t=0 Ngn3 levels prior to CHX treatment is paralleled by the relative half-life of the protein. Destabilizing conditions include N1ICD, N2ICD, and Hes1. Stabilizing conditions include DN-MAML1 and DAPT-treatment. […] Hes1 is able to destabilize Ngn3 in the presence of DN-MAML1.
While Hes1 is known to directly repress Ngn3 expression, this would be an insufficient explanation for the observed results in which Ngn3 was driven by a Pdx1-tTA;tetO governed system. […] As destabilization of other bHLH factors, including NGN, and hASH1 has been observed, which has also implicated Notch, we then tested if a similar mechanism might operate in pancreas. As a means to mechanistically address this question, we first determined if Ngn3 protein half-life was regulated by proteasomal activity. Using three different heterologous cell lines (HepG2, Hek293, and CHO) conditionally expressing Ngn3, we observed a rapid turnover of Ngn3 protein after cycloheximide (CHX) addition; conditions where the control protein, beta-Actin, remained stable (FIG. 34I and data not shown). […]
(In general: In western blotting, separated proteins are transferred to a membrane and probed.)

Bounds are passed on as bounds.

Turning to `C[C@H](NC(=O)Cc1cc(F)cc(F)c1)C(=O)N[C@H](C(=O)OC(C)(C)C)c1ccccc1` [DAPT, N—[N-(3,5-Diflurophenacetyl-L-alanyl)]-S-phenylglycine t-Butyl Ester], the ductal cell development result in experiment [1] (100 μM DAPT) is listed as “fully abolished”. Further, in experiment [1] (100 μM DAPT, qRT-PCR), the Gcg expression entry was “reduced” and the “Ins1, Ins2 expression” value is recorded as “further enhanced”. Moreover, in experiment [1] (25-50 μM DAPT), the ductal cell development result is reported as “significantly reduced”. Also, in experiment [1] (qRT-PCR), the “Ngn3, NeuroD1, Nkx6.1 expression” value was “dose-dependent increases”; the Sox9 expression entry is reported as “Sox9 expression was reduced”; the “acinar gene expression (Cpa1, Cpa2, Ptf1a)” value is “strongly promoted”. In experiment [2], the “Ngn3-mediated ductal cell formation” value is “abrogated”, the “Pdx1+/Ins+ endocrine cells” value is “numerous”, the “acinar density (CPA1+ cells)” value is recorded as “much increased” and the glucagon-expressing cells result is “correspondingly reduced”. In addition, the “total Ngn3 protein levels and stability” value in experiment [3] (HepG2 cells, DAPT at 50 μM) is listed as “increase in total Ngn3 protein levels”.

B1: Ngn3: pro-endocrine bHLH factor, 214 amino acids (protein, UniProt Q9Y4Z2 1-214, looked up)
chain: MTPQPSGAPTVQVTRETERSFPRASEDEVTCPTSAPPSPTRTRGNCAEAEEGGCRGAPRKLRARRGGRSRPKSELALSKQRRSRRKKANDRERNRMHNLNSALDALRGVLPTFPDDAKLTKIETLRFAHNYIWALTQTLRIADHSLYALEPPAPHCGELGSPGGSPGDWGSLYSPVSQAGSLSPAASLEERPGLLGATFSACLSPGSLAFSDFL
modifications: full-length
notes: pro-endocrine bHLH factor, 214 amino acids
With B1, the “half-life of Ngn3 (T1/2)” value is listed as < 15 ′ in experiment [3] (HepG2 cells co-expressing N1ICD or N2ICD) and ~30 ′ in experiment [3] (HepG2 cells, CHX time course, non-treated).

(Values after US20150368616A1, “METHODS FOR INDUCTION OF CELL FATES FROM PLURIPOTENT CELLS” (THE CLEVELAND CLINIC FOUNDATION, priority 2013, published 2015).)
